These results are taken from patent US20240228986A1, “ENGINEERED CELLS, ENZYMES, AND METHODS FOR PRODUCING CANNABINOIDS” (priority 2021, published 2024).

For the experiment, the system named is MPT21 (SEQ ID NO: 22; chimera of MPT1 and MPT4) as fusion GPS1.1-F11-MPT21 (SEQ ID NO: 25), expressed in Yarrowia. Briefly: In vitro activity assay with microsomes of GPS1.1-F11-MPT21. The conditions noted are these: microsomes from Yarrowia sCL-SE-0128 + pCL-SE-0664; varying concentrations of OA and DVA; enzyme not purified to homogeneity. In kind it is biochemical. As for the experimental part: Yarrowia cells sCL-SE-0128 expressing the fusion of GPS1.1 with MPT4 (pCL-SE-0406) and MPT21 (pCL-SE-0664) were grown at 30 mL culture at 30 C for 2 days in YNB with 20% glucose. The cells were collected by centrifugation, washed with homogenization buffer (MAK340-1KT Sigma Aldrich) and were resuspended in 2 mL of homogenization buffer. The suspended cells were transferred to 5 mL tubes containing 1 mL of glass beads and were homogenized by shaking for 5 min at max speed in a shaker (Retsch MM400). The lysed cells were transferred to new tubes and microsomes were prepared as described in the kit (MAK340-1KT). Activity assays were performed using microsomes from both enzymes and varying concentrations of OA and DVA.

Turning to `CCCc1cc(O)cc(O)c1C(=O)O` [DVA, divarinic acid], the Km was 62.2 µM.

Turning to `CCCCCc1cc(O)cc(O)c1C(=O)O` [OA, olivetolic acid], the Km stood at 20.9 µM.

For orientation: Km means the substrate concentration at which the rate is half of its maximum.
